According to patent publication US4319028A, “7-(2-(Substituted benzoyl)amino)acetamido)cephalosporins” (Eli Lilly and Company, priority 1976, dated 1982):
Converted amounts (≈) assume the structure as drawn. Where two headings read alike, the source gives them in different places.

Legend:
Pseudomonas Aeruginosa = test: Antibiotic activity (MIC), Gradient Plate in vitro method, Pseudomonas Aeruginosa; type: cell-based; settings: read-out: Minimum Inhibitory Concentration
Excerpt: (§1) The values in the table are the minimum inhibitory concentrations (MIC) for the test compounds against the indicated microorganisms. The MIC values were obtained in the Gradient Plate in vitro method for determining antibiotic activity.

[1] = tested on: V32 (penicillin resistant Staphylococcus); test: Antibiotic activity (MIC), Gradient Plate in vitro method, V32; type: cell-based; settings: Gradient Plate in vitro; V32, penicillin resistant Staphylococcus; read-out: Minimum Inhibitory Concentration
Excerpt: as §1, with “The antibiotic activity of the cephalosporin compounds of the present invention is illustrated by the data presented in Table I for representative compounds. The values” for “The values”
(§2) ^1 Test organisms V41, V32, and V84 are penicillin resistant

Klebsiella pneumoniae = test: Antibiotic activity (MIC), Gradient Plate in vitro method, Klebsiella pneumoniae; type: cell-based; settings: read-out: Minimum Inhibitory Concentration
Excerpt: as §1

Shigella sp. = test: Antibiotic activity (MIC), Gradient Plate in vitro method, Shigella sp.; type: cell-based; settings: read-out: Minimum Inhibitory Concentration
Excerpt: as §1, with “The antibiotic activity of the cephalosporin compounds of the present invention is illustrated by the data presented in Table I for representative compounds. The values” for “The values”

Titration (pKa) = type: physicochemical; settings: 66% dmf-34% h2o, titration (66% DMF-34% H2O)
Salmonella heidelberg = test: Antibiotic activity (MIC), Gradient Plate in vitro method, Salmonella heidelberg; type: cell-based; settings: Salmonella enterica, read-out: Minimum Inhibitory Concentration
Excerpt: as §1

Serratia marcescens = test: Antibiotic activity (MIC), Gradient Plate in vitro method, Serratia marcescens; type: cell-based; settings: read-out: Minimum Inhibitory Concentration
Excerpt: as §1, with “The antibiotic activity of the cephalosporin compounds of the present invention is illustrated by the data presented in Table I for representative compounds. The values” for “The values”

[2] = tested on: V41 (penicillin resistant Staphylococcus); test: Antibiotic activity (MIC), Gradient Plate in vitro method, V41; type: cell-based; settings: read-out: Minimum Inhibitory Concentration
Excerpt: as §1, with “The antibiotic activity of the cephalosporin compounds of the present invention is illustrated by the data presented in Table I for representative compounds. The values” for “The values”
as §2

Aerobacter Aerogenes = test: Antibiotic activity (MIC), Gradient Plate in vitro method, Aerobacter Aerogenes; type: cell-based; settings: Klebsiella aerogenes, read-out: Minimum Inhibitory Concentration
Excerpt: as §1

Escherichia coli = test: Antibiotic activity (MIC), Gradient Plate in vitro method, Escherichia coli; type: cell-based; settings: read-out: Minimum Inhibitory Concentration
Excerpt: as §1

[3] = tested on: X466 (methicillin resistant Staphylococcus); test: Antibiotic activity (MIC), Gradient Plate in vitro method, X466; type: cell-based; settings: read-out: Minimum Inhibitory Concentration
Excerpt: The antibiotic activity of the cephalosporin compounds of the present invention is illustrated by the data presented in Table I for representative compounds. The values in the table are the minimum inhibitory concentrations (MIC) for the test compounds against the indicated microorganisms. The MIC values were obtained in the Gradient Plate in vitro method for determining antibiotic activity. […]

[4] = tested on: V84 (penicillin resistant Staphylococcus); test: Antibiotic activity (MIC), Gradient Plate in vitro method, V84; type: cell-based; settings: Gradient Plate in vitro; V84, penicillin resistant Staphylococcus; read-out: Minimum Inhibitory Concentration
Excerpt: The antibiotic activity of the cephalosporin compounds of the present invention is illustrated by the data presented in Table I for representative compounds. The values in the table are the minimum inhibitory concentrations (MIC) for the test compounds against the indicated microorganisms. The MIC values were obtained in the Gradient Plate in vitro method for determining antibiotic activity.
as §2

[5] = first pKa, read-out: pKa (first value)
[6] = second pKa, read-out: pKa (second value)
[7] = third pKa, read-out: pKa (third value)
[8] = Gradient Plate in vitro, V41, penicillin resistant Staphylococcus

SMILES: Cc1nnc(SCC2=C(C(=O)O)N3C(=O)C(NC(=O)[C@H](NC(=O)c4cc(O)c(O)c(O)c4O)c4ccc(O)cc4)C3SC2)s1 (stereo partly drawn) [Example 14, 7-[D-[2-(4-Hydroxyphenyl)-2-[(2,3,4,5-tetrahydroxybenzoyl)amino]acetyl]amino]-3-[[(1-methyl-1,3,4-thiadiazol-2-yl)thio]methyl]-3-cephem-4-carboxylic acid]
- MIC (Pseudomonas Aeruginosa): 92 µg/mL (≈ 139 µM)
- MIC [1]: 7.1 µg/mL (≈ 10.7 µM)
- MIC (Klebsiella pneumoniae): 5 µg/mL (≈ 7.56 µM)
- MIC (Shigella sp.): 5.7 µg/mL (≈ 8.61 µM)
- pKa (Titration (pKa); [5]): 4.98
- pKa (Titration (pKa); [6]): 7.63
- pKa (Titration (pKa); [7]): 9.69
- MIC (Salmonella heidelberg): 3 µg/mL (≈ 4.53 µM)
- MIC (Serratia marcescens): > 200 µg/mL
- MIC [2, 8]: 7.2 µg/mL (≈ 10.9 µM)
- MIC (Aerobacter Aerogenes): 9.1 µg/mL (≈ 13.8 µM)
- MIC (Escherichia coli): 10.1 µg/mL (≈ 15.3 µM)
- MIC [3]: 134 µg/mL (≈ 203 µM)
- MIC [4]: 6.2 µg/mL (≈ 9.37 µM)

SMILES: Cn1nnnc1SCC1=C(C(=O)O)N2C(=O)C(NC(=O)[C@H](NC(=O)c3cc(O)ccc3O)c3ccc(O)cc3)C2SC1 (stereo partly drawn) [Example 15, 7-[D-[2-(4-Hydroxyphenyl)-2-[(2,5-dihydroxybenzoyl)-amino]acetyl]amino]-3-[[(1-methyltetrazol-5-yl)thio]-methyl]-3-cephem-4-carboxylic acid]
- MIC (Pseudomonas Aeruginosa): > 200 µg/mL
- MIC [1]: 13 µg/mL (≈ 21.2 µM)
- MIC (Klebsiella pneumoniae): 32.2 µg/mL (≈ 52.5 µM)
- MIC (Shigella sp.): 26.5 µg/mL (≈ 43.2 µM)
- pKa (Titration (pKa); [5]): 5.08
- pKa (Titration (pKa); [6]): 11
- pKa (Titration (pKa); [7]): 12.5
- MIC (Salmonella heidelberg): 17.8 µg/mL (≈ 29 µM)
- MIC (Serratia marcescens): > 200 µg/mL
- MIC [2, 8]: 15 µg/mL (≈ 24.4 µM)
- MIC (Aerobacter Aerogenes): 43.5 µg/mL (≈ 70.9 µM)
- MIC (Escherichia coli): 28 µg/mL (≈ 45.6 µM)
- MIC [3]: > 200 µg/mL
- MIC [4]: 10 µg/mL (≈ 16.3 µM)

SMILES: Cn1nnnc1SCC1=C(C(=O)O)N2C(=O)C(NC(=O)[C@H](NC(=O)c3cc(O)cc(O)c3)c3ccc(O)cc3)C2SC1 (stereo partly drawn) [Example 16, 7-[D-[2-(4-Hydroxyphenyl)-2-[(3,5-dihydroxybenzoyl)-amino]acetyl]amino]-3-[[(1-methyltetrazol-5-yl)thio]-methyl]-3-cephem-4-carboxylic acid]
- MIC (Pseudomonas Aeruginosa): > 200 µg/mL
- MIC [1]: 1.9 µg/mL (≈ 3.1 µM)
- MIC (Klebsiella pneumoniae): 17.4 µg/mL (≈ 28.4 µM)
- MIC (Shigella sp.): 9.8 µg/mL (≈ 16 µM)
- pKa (Titration (pKa); [5]): 5.22
- pKa (Titration (pKa); [6]): 11.7
- pKa (Titration (pKa); [7]): ≥ 12
- MIC (Salmonella heidelberg): 8.1 µg/mL (≈ 13.2 µM)
- MIC (Serratia marcescens): > 200 µg/mL
- MIC [2, 8]: 4.5 µg/mL (≈ 7.33 µM)
- MIC (Aerobacter Aerogenes): 22 µg/mL (≈ 35.9 µM)
- MIC (Escherichia coli): 16.5 µg/mL (≈ 26.9 µM)
- MIC [3]: 112 µg/mL (≈ 183 µM)
- MIC [4]: 2.7 µg/mL (≈ 4.4 µM)

SMILES: Cn1nnnc1SCC1=C(C(=O)O)N2C(=O)C(NC(=O)[C@H](NC(=O)c3ccc(O)cc3O)c3ccc(O)cc3)C2SC1 (stereo partly drawn) [Example 17, 7-[D-[2-(4-Hydroxyphenyl)-2-[(2,4-dihydroxybenzoyl)-amino]-acetyl]amino]-3-[[(1-methyltetrazol-5-yl)thio]-methyl]-3-cephem-4-carboxylic acid]
- MIC (Pseudomonas Aeruginosa): 92 µg/mL (≈ 150 µM)
- MIC [1]: 3.5 µg/mL (≈ 5.7 µM)
- MIC (Klebsiella pneumoniae): 15.5 µg/mL (≈ 25.3 µM)
- MIC (Shigella sp.): 9.2 µg/mL (≈ 15 µM)
- pKa (Titration (pKa); [5]): 4.97
- pKa (Titration (pKa); [6]): 9.58
- pKa (Titration (pKa); [7]): 12.1
- MIC (Salmonella heidelberg): 14 µg/mL (≈ 22.8 µM)
- MIC (Serratia marcescens): > 200 µg/mL
- MIC ([2]; Staphylococcus): 4 µg/mL (≈ 6.52 µM)
- MIC (Aerobacter Aerogenes): 36 µg/mL (≈ 58.7 µM)
- MIC (Escherichia coli): 18 µg/mL (≈ 29.3 µM)
- MIC [3]: 102 µg/mL (≈ 166 µM)
- MIC [4]: 2.4 µg/mL (≈ 3.91 µM)

SMILES: O=C(O)C1=C(Cl)CSC2C(NC(=O)[C@H](NC(=O)c3cccc(O)c3O)c3ccccc3)C(=O)N12 (stereo partly drawn) [Example 18, 7-[D-[2-Phenyl-2-[(2,3-dihydroxybenzoyl)amino]acetyl]-amino]-3-chloro-3-cephem-4-carboxylic acid]
- MIC (Pseudomonas Aeruginosa): > 200 µg/mL
- MIC [1]: 21.5 µg/mL (≈ 42.7 µM)
- MIC (Klebsiella pneumoniae): 7 µg/mL (≈ 13.9 µM)
- MIC (Shigella sp.): 18 µg/mL (≈ 35.7 µM)
- pKa (Titration (pKa); [5]): 4.55
- pKa (Titration (pKa); [6]): 3.84
- MIC (Salmonella heidelberg): 1 µg/mL (≈ 1.98 µM)
- MIC (Serratia marcescens): > 200 µg/mL
- MIC [2, 8]: 24 µg/mL (≈ 47.6 µM)
- MIC (Aerobacter Aerogenes): 50 µg/mL (≈ 99.2 µM)
- MIC (Escherichia coli): 82 µg/mL (≈ 163 µM)
- MIC [3]: > 200 µg/mL
- MIC [4]: 14.2 µg/mL (≈ 28.2 µM)

SMILES: CC(=O)OCC1=C(C(=O)O)N2C(=O)C(NC(=O)C(NC(=O)c3cccc(O)c3O)c3ccccc3)C2SC1 [Example 19, 7-[D-[2-Phenyl-2-[(2,3-dihydroxybenzoyl)amino]acetyl]-amino]-3-acetoxymethyl-3-cephem-4-carboxylic acid]
- MIC (Pseudomonas Aeruginosa): 56 µg/mL (≈ 103 µM)
- MIC [1]: 16.2 µg/mL (≈ 29.9 µM)
- MIC (Klebsiella pneumoniae): 7.4 µg/mL (≈ 13.7 µM)
- MIC (Shigella sp.): 50 µg/mL (≈ 92.3 µM)
- pKa (Titration (pKa); [5]): 5
- pKa (Titration (pKa); [6]): 8.72
- MIC (Salmonella heidelberg): 1 µg/mL (≈ 1.85 µM)
- MIC (Serratia marcescens): > 200 µg/mL
- MIC [2, 8]: 17 µg/mL (≈ 31.4 µM)
- MIC (Aerobacter Aerogenes): > 200 µg/mL
- MIC (Escherichia coli): > 200 µg/mL
- MIC [3]: > 200 µg/mL
- MIC [4]: 14.7 µg/mL (≈ 27.1 µM)
